Data published in patent US20070191395A1 (priority 2004, published 2007).
Values after ≈ are worked out from the molar mass of the structure shown.

Key:
Format in all cases: cell-based
[1] = test system: Candida albicans ATCC MYA-573; assay: Antifungal activity, growth inhibition (alamar Blue), Candida albicans; settings: GI50 versus drug non-addition growth
Protocol: (§1) Measuring method of the antifungal activities of the compounds of the present invention carried out in accordance with Japanese Journal of Medical Mycology, 40, 243-246, 1999, Japanese Society for Medical Mycology Standardization Committee, (alamar Blue), and the or 80% growth inhibition (GI50 or GI80) concentration (μg/ml) for drug non-addition growth as the positive control was measured.

[2] = test system: Candida glabrata ATCC 48435; assay: Antifungal activity, growth inhibition (alamar Blue), Candida glabrata; settings: GI80 versus drug non-addition growth
Protocol: as §1

[3] = test system: Saccharomyces cerevisiae AY-14; assay: Antifungal activity, growth inhibition (alamar Blue), Saccharomyces cerevisiae; settings: GI80 versus drug non-addition growth
Protocol: as §1

[4] = test system: Candida krusei ATCC 44507; assay: Antifungal activity, growth inhibition (alamar Blue), Candida krusei; settings: for GI50, 50% growth inhibition concentration, Candida krusei ATCC 44507: GI50 versus drug non-addition growth
Protocol: as §1

Row | GI50, 50% growth inhibition concentration, Candida albicans ATCC MYA-573 [1] | GI50, 50% growth inhibition concentration, Candida krusei ATCC 44507 [4] | SMILES | GI80, 80% growth inhibition concentration, Candida glabrata ATCC 48435 [2] | GI80, 80% growth inhibition concentration, Saccharomyces cerevisiae AY-14 [3] | GI50 ([1]; read-out: GI50, 50% growth inhibition concentration, Candida albicans ATCC MYA-573) | GI50 ([4]; Pichia kudriavzevii, ATCC44507, GI50 versus drug non-addition growth, read-out: GI50, 50% growth inhibition concentration, Candida krusei ATCC 44507)
1 | 1 µg/mL (≈ 2.58 µM) | >4 µg/mL | Cc1c(-c2ccccc2)c(N2CC[C@H](N(C)C)C2)n2cc(C(C)C)nc2c1C#N [Example 8] | 0.125 µg/mL (≈ 0.323 µM) | 2 µg/mL (≈ 5.16 µM) | – | –
2 | 0.5 µg/mL (≈ 0.983 µM) | >4 µg/mL | Cc1c(-c2ccccc2)c(N2CC[C@H](N(C)C)C2)n2nc(C(C)(C)COCc3ccccc3)nc2c1C#N [Example 39] | 0.25 µg/mL (≈ 0.491 µM) | 0.063 µg/mL (≈ 0.124 µM) | – | –
3 | 4 µg/mL (≈ 10.3 µM) | 4 µg/mL (≈ 10.3 µM) | C=C(C)c1nc2c(C#N)c(C)c(-c3ccccc3)c(N3CC[C@H](N(C)C)C3)n2n1 [Example 33] | 0.008 µg/mL (≈ 0.0207 µM) | 0.004 µg/mL (≈ 0.0103 µM) | – | –
4 | 0.25 µg/mL (≈ 0.623 µM) | >4 µg/mL | Cc1c(-c2ccccc2)c(N2CC[C@H](N(C)C)C2)n2cc(C(C)(C)C)nc2c1C#N [Example 9, (3′S)-2-tert-Butyl-5-(3-dimethylaminopyrrolidin-1-yl)-7-methyl-6-phenylimidazo[1,2-a]pyridine-8-carbonitrile] | 0.25 µg/mL (≈ 0.623 µM) | 0.125 µg/mL (≈ 0.311 µM) | – | –
5 | 4 µg/mL (≈ 9.94 µM) | >4 µg/mL | Cc1c(-c2ccccc2)c(N2CC[C@H](N(C)C)C2)n2nc(C(C)(C)C)nc2c1C#N [Example 25] | 0.125 µg/mL (≈ 0.311 µM) | 0.063 µg/mL (≈ 0.157 µM) | – | –
6 | – | – | OC(Cn1cncn1)(Cn1cncn1)c1ccc(F)cc1F [Fluconazole, reference compound] | 4 µg/mL (≈ 13.1 µM) | 4 µg/mL (≈ 13.1 µM) | > 4 µg/mL | > 4 µg/mL
7 | 4 µg/mL (≈ 9.96 µM) | 4 µg/mL (≈ 9.96 µM) | Cc1c(-c2ccccc2)c(N2CC[C@H](N(C)C)C2)n2nc(C(C)(C)C)cc2c1C#N [Example 62] | 2 µg/mL (≈ 4.98 µM) | 2 µg/mL (≈ 4.98 µM) | – | –
